From ChEMBL document CHEMBL1136559, “Discovery, SAR, synthesis, pharmacokinetic and biochemical characterization of A-192411: a novel fungicidal lipopeptide-(I)” (Bioorg Med Chem Lett, 2003)
Converted amounts (≈) assume the structure as drawn. Starred links: 1 amine or outer side, 2 acyl side, 3 side chain; linkers in the order of their positions; H or OH if unused. Positions of bridges follow the written chain, without caps; N, C: chain ends. Non-standard residues stand in square brackets, D forms with d. Residues, ends and D or L forms follow the SMILES beside them. *: point of attachment. pTerphenylCO(4''-OnC5H11) = CCCCCOc1ccc(-c2ccc(-c3ccc(C(=O)*)cc3)cc2)cc1; Pro(cis-4-guanidino) = NC(N)=N[C@@H]1CN[C@H](C(=O)O)C1; hTyr(3-COCH2NH2) = NCC(=O)c1cc(CC[C@H](N)C(=O)O)ccc1O; X3 = CCCCCCCCOc1ccc(N2CCN(c3ccc(C(=O)*)cc3)CC2)cc1; X5 = CCCCCCCCN1CCN(c2ccc(-c3ccc(C(=O)*)cc3)cc2)CC1; X6 = NCC(=O)[C@H]1C[C@@H](C(=O)[*:2])N([*:1])C1; Pro(4S-NH2) = N[C@@H]1CN[C@H](C(=O)O)C1; Hyp = O=C(O)[C@@H]1C[C@@H](O)CN1; Orn = NCCC[C@H](N)C(=O)O

How the values were obtained:
Format in all cases: functional
Candida albicans [1] = experiment: Antifungal activity against Candida albicans ATCC 10231
Naganishia albida = experiment: Antifungal activity against Cryptococcus albidus ATCC 34140
[Candida] zeylanoides = Antifungal activity against Candida zeylanoides NRRL Y-112
Candida albicans [2] = experiment: Antifungal activity against Candida albicans 579A
Candida albicans [3] = experiment: Antifungal activity against Candida albicans ATCC 62376
Aspergillus niger = experiment: Antifungal activity against Aspergillus niger ATCC 16404
Candida albicans [4] = experiment: Antifungal activity against Candida albicans ATCC 38247
Candida albicans [5] = experiment: Antifungal activity against Candida albicans CAF-2
Kluyveromyces marxianus = experiment: Antifungal activity against Candida kefyr ATCC 28838
Candida albicans [6] = experiment: Antifungal activity against Candida albicans CCH 442
Nakaseomyces glabratus = experiment: Antifungal activity against Torulopsis glabrata ATCC 15545
[7] = Candida albicans, ATCC 10231, read-out: MIC
[8] = Naganishia albida, ATCC 34140, read-out: MIC
[9] = Dujonia zeylanoides, read-out: MIC
[10] = Candida albicans, read-out: MIC
[11] = Candida albicans, ATCC 62376, read-out: MIC
[12] = Aspergillus niger, ATCC 16404, read-out: MIC
[13] = Candida albicans, ATCC 38247, read-out: MIC
[14] = Kluyveromyces marxianus, ATCC 28838, read-out: MIC
[15] = Nakaseomyces glabratus, ATCC 15545, read-out: MIC

SMILES	MIC (Candida albicans [1]; [7])	MIC (Naganishia albida; [8])	MIC ([Candida] zeylanoides; [9])	MIC (Candida albicans [2]; [10])	MIC (Candida albicans [3]; [11])	MIC (Aspergillus niger; [12])	MIC (Candida albicans [4]; [13])	MIC (Candida albicans [5]; [10])	MIC (Kluyveromyces marxianus; [14])	MIC (Candida albicans [6]; [10])	MIC (Nakaseomyces glabratus; [15])	also measured
CCCCCCCCN1CCN(c2ccc(-c3ccc(C(=O)N[C@H]4CCCNC(=O)[C@@H]5C[C@H](N=C(N)N)CN5C(=O)[C@H]([C@@H](C)O)NC(=O)[C@H](CCc5ccc(O)c(C(=O)CN)c5)NC(=O)[C@@H]5C[C@@H](O)CN5C(=O)[C@H]([C@@H](C)O)NC4=O)cc3)cc2)CC1 (X5-[Orn]T[Hyp][hTyr(3-COCH2NH2)]T[Pro(cis-4-guanidino)]; lactam 1-C)	0.2 µg/mL (≈ 0.167 µM)	12.5 µg/mL (≈ 10.5 µM)	0.2 µg/mL (≈ 0.167 µM)	0.2 µg/mL (≈ 0.167 µM)	0.2 µg/mL (≈ 0.167 µM)	3.12 µg/mL (≈ 2.61 µM)	0.2 µg/mL (≈ 0.167 µM)	0.1 µg/mL (≈ 0.0837 µM)	1.56 µg/mL (≈ 1.31 µM)	0.1 µg/mL (≈ 0.0837 µM)	1.56 µg/mL (≈ 1.31 µM)	
CCCCCCCCOc1ccc(N2CCN(c3ccc(C(=O)N[C@H]4CCCNC(=O)[C@@H]5C[C@H](N)CN5C(=O)[C@H]([C@@H](C)O)NC(=O)[C@H](CCc5ccc(O)c(C(=O)CN)c5)NC(=O)[C@@H]5C[C@@H](O)CN5C(=O)[C@H]([C@@H](C)O)NC4=O)cc3)CC2)cc1 (X3-[Orn]T[Hyp][hTyr(3-COCH2NH2)]T[Pro(4S-NH2)]; lactam 1-C)	0.1 µg/mL (≈ 0.0856 µM)	6.25 µg/mL (≈ 5.35 µM)	0.1 µg/mL (≈ 0.0856 µM)	0.1 µg/mL (≈ 0.0856 µM)	0.1 µg/mL (≈ 0.0856 µM)	1.56 µg/mL (≈ 1.34 µM)	0.2 µg/mL (≈ 0.171 µM)	0.1 µg/mL (≈ 0.0856 µM)	1.56 µg/mL (≈ 1.34 µM)	0.1 µg/mL (≈ 0.0856 µM)	0.2 µg/mL (≈ 0.171 µM)	
CCCCCOc1ccc(-c2ccc(-c3ccc(C(=O)N[C@H]4CCCNC(=O)[C@@H]5C[C@H](N=C(N)N)CN5C(=O)[C@H]([C@@H](C)O)NC(=O)[C@H](CCc5ccc(O)c(C(=O)CN)c5)NC(=O)[C@@H]5C[C@@H](O)CN5C(=O)[C@H]([C@@H](C)O)NC4=O)cc3)cc2)cc1 (stereo in doubt; 4)												MIC (Candida albicans [1]): 0.78 µg/mL (≈ 0.672 µM); MIC (Naganishia albida): 6.25 µg/mL (≈ 5.39 µM); MIC ([Candida] zeylanoides): 1.56 µg/mL (≈ 1.34 µM); MIC (Candida albicans [2]): 0.39 µg/mL (≈ 0.336 µM); MIC (Candida albicans [3]): 0.39 µg/mL (≈ 0.336 µM); MIC (Aspergillus niger): 6.25 µg/mL (≈ 5.39 µM); MIC (Candida albicans [4]): 0.78 µg/mL (≈ 0.672 µM); MIC (Candida albicans [5]): 0.39 µg/mL (≈ 0.336 µM); MIC (Kluyveromyces marxianus): 0.78 µg/mL (≈ 0.672 µM); MIC (Candida albicans [6]): 0.78 µg/mL (≈ 0.672 µM); MIC (Nakaseomyces glabratus): 1.56 µg/mL (≈ 1.34 µM)
CCCCCCCCOc1ccc(N2CCN(c3ccc(C(=O)N[C@H]4CCCNC(=O)[C@@H]5C[C@H](N=C(N)N)CN5C(=O)[C@H]([C@@H](C)O)NC(=O)[C@H](CCc5ccc(O)c(C(=O)CN)c5)NC(=O)[C@@H]5C[C@@H](O)CN5C(=O)[C@H]([C@@H](C)O)NC4=O)cc3)CC2)cc1 (X3-[Orn]T[Hyp][hTyr(3-COCH2NH2)]T[Pro(cis-4-guanidino)]; lactam 1-C)	0.78 µg/mL (≈ 0.644 µM)	6.25 µg/mL (≈ 5.16 µM)	3.12 µg/mL (≈ 2.58 µM)	0.39 µg/mL (≈ 0.322 µM)	0.78 µg/mL (≈ 0.644 µM)	6.25 µg/mL (≈ 5.16 µM)	0.39 µg/mL (≈ 0.322 µM)	0.1 µg/mL (≈ 0.0826 µM)	0.78 µg/mL (≈ 0.644 µM)	0.78 µg/mL (≈ 0.644 µM)	0.78 µg/mL (≈ 0.644 µM)	
CCCCCCCCN1CCN(c2ccc(-c3ccc(C(=O)N[C@H]4CCCNC(=O)[C@@H]5C[C@H](C(=O)CN)CN5C(=O)[C@H]([C@@H](C)O)NC(=O)[C@H](CCc5ccc(O)c(C(=O)CN)c5)NC(=O)[C@@H]5CCCN5C(=O)[C@H]([C@@H](C)O)NC4=O)cc3)cc2)CC1 (X5-[Orn]TP[hTyr(3-COCH2NH2)]T[X6]; lactam 1-C)	0.39 µg/mL (≈ 0.331 µM)	25 µg/mL (≈ 21.2 µM)	0.2 µg/mL (≈ 0.17 µM)	0.39 µg/mL (≈ 0.331 µM)	0.39 µg/mL (≈ 0.331 µM)	25 µg/mL (≈ 21.2 µM)	0.78 µg/mL (≈ 0.662 µM)	0.1 µg/mL (≈ 0.0849 µM)	1.56 µg/mL (≈ 1.32 µM)	0.39 µg/mL (≈ 0.331 µM)	1.56 µg/mL (≈ 1.32 µM)	
CCCCCOc1ccc(-c2ccc(-c3ccc(C(=O)N[C@H]4CCCNC(=O)[C@@H]5C[C@H](N=C(N)N)CN5C(=O)[C@H]([C@@H](C)O)NC(=O)[C@H](CCc5ccc(O)c(C(=O)CN)c5)NC(=O)[C@@H]5CCCN5C(=O)[C@H]([C@@H](C)O)NC4=O)cc3)cc2)cc1 ({pTerphenylCO(4''-OnC5H11)}-[Orn]TP[hTyr(3-COCH2NH2)]T[Pro(cis-4-guanidino)]; lactam 1-C)	0.39 µg/mL (≈ 0.341 µM)	25 µg/mL (≈ 21.8 µM)	0.39 µg/mL (≈ 0.341 µM)	0.2 µg/mL (≈ 0.175 µM)	0.2 µg/mL (≈ 0.175 µM)	25 µg/mL (≈ 21.8 µM)	0.39 µg/mL (≈ 0.341 µM)	0.1 µg/mL (≈ 0.0874 µM)	1.56 µg/mL (≈ 1.36 µM)	0.2 µg/mL (≈ 0.175 µM)	0.39 µg/mL (≈ 0.341 µM)	
